According to US20240141291A1, “FUNCTIONAL BRAIN REGION-SPECIFIC NEURAL SPHEROIDS AND METHODS OF USE” (THE UNITED STATES OF AMERICA, AS REPRESENTED BY THE …, priority 2021, published 2024):
“Also recorded” adds a separate entry of the source.

Legend:
Type in all cases: cell-based, human
[1] = system: single neuron spheroids expressing hM3Dq or hM4Di; assay: Chemogenetic (DREADDs) activation with CNO, FLIPR calcium activity; conditions: 1 uM CNO
Procedure: Viruses and dyes: To assess calcium activity, the calcium dye, Cal6 (Molecular Devices), and genetically encoded calcium indicator, GCaMP6f (Addgene, cat #100836-AAV9) were used. Cal6 was used according to manufacturer's instructions and 10 mL of maintenance media was added to each vial. Two hours before activity was recorded, half of the spheroid media was exchanged for media with Cal6. The plates were covered in foil and placed in the incubator at 37° C. during the 2-hour (hr) incubation period. Since all viruses used were adeno-associated viruses (AAV), they were added to the media on day 7 to allow for 2-weeks expression prior to recording or testing. […]
Fluorescent Imaging plate Reader (FLIPR): The FLIPR Penta (Molecular Devices) was used to assess calcium fluorescence across the 384-well plate simultaneously and to observe changes after treatment with compounds. The evening before calcium activity was measured, plates were sealed with parafilm and centrifuged at 1485×g for 2-min to get spheroids to the bottom of the well in a centered position. On the day of recording, the plate used for recording was placed in the read plate position inside of the FLIPR following the 2-hour Cal6 incubation at 37° C. […] Fluorescent image reads were taken every 0.6 seconds for all plates, with exposure time of 0.03 and 50% excitation intensity. […]

APOE4 PFC-like spheroids = assay: Alzheimer's Disease model, FLIPR calcium activity after compound treatment; conditions: 90 min after treatment, Memantine 10 μM, Donepezil 1 & 10 uM, EUK-134 1 & 10 μM
Procedure: (§1) Fluorescent Imaging plate Reader (FLIPR): The FLIPR Penta (Molecular Devices) was used to assess calcium fluorescence across the 384-well plate simultaneously and to observe changes after treatment with compounds. The evening before calcium activity was measured, plates were sealed with parafilm and centrifuged at 1485×g for 2-min to get spheroids to the bottom of the well in a centered position. On the day of recording, the plate used for recording was placed in the read plate position inside of the FLIPR following the 2-hour Cal6 incubation at 37° C. Standard filter sets were used for Cal6 imaging with excitation set at 470-495 and emission at 515-575 nm. Fluorescent image reads were taken every 0.6 seconds for all plates, with exposure time of 0.03 and 50% excitation intensity. Recordings from the initial seven plates consisted of 1000 reads and were 10-min recordings with 2.5 gain, while the final two plates consisted of 500 reads (5-min recordings) with a gain of 2. Baseline recordings were taken across all plates and, if applicable, more recordings were obtained 1-, 30-, 60-, and/or 90-min after compound treatment. In between recordings, plates were wrapped in foil and placed back in the incubator at 37° C.
384 Pin Tool: A 384 well pin tool (Rexroth) was used to transfer compounds simultaneously to the spheroid plate. Prior to compound transfer, the pin tool went through four wash cycles where pins were rinsed with dimethyl sulfoxide (DMSO), followed by methanol, then deionized (DI) water, to ensure the pins were clean. Compound transfer via the 384 well pin tool occurred after the baseline recordings with the fluorescent imaging plate reader (FLIPR). […]
Calcium Activity Analysis: Calcium oscillatory peak detection data from FLIPR recordings was obtained through ScreenWorks 5.1 (Molecular Devices). […] There, percent coefficient of variance (% CV) was calculated within each plate to measure how variable each parameter exported was. […]

PFC-like spheroids [2] = assay: FLIPR calcium activity with Cal6 dye, control compounds / DAMGO / AD compounds (Example 3); conditions: PFC-like spheroids; recordings 1-, 30-, 60-min after treatment
Procedure: (§2) Viruses and dyes: To assess calcium activity, the calcium dye, Cal6 (Molecular Devices), and genetically encoded calcium indicator, GCaMP6f (Addgene, cat #100836-AAV9) were used. Cal6 was used according to manufacturer's instructions and 10 mL of maintenance media was added to each vial. Two hours before activity was recorded, half of the spheroid media was exchanged for media with Cal6. The plates were covered in foil and placed in the incubator at 37° C. during the 2-hour (hr) incubation period. Since all viruses used were adeno-associated viruses (AAV), they were added to the media on day 7 to allow for 2-weeks expression prior to recording or testing. All viruses were added to the media at 2e5 multiplicity of infection (MOI). GCaMP6f infection occurred via an adeno-associated virus serotype 9 (AAV9) expressed under the CAG promoter for expression in both neurons and astrocytes. Designer receptors exclusively activated by designer drugs (DREADDs) viruses were used to stimulate and inhibit neuronal activity within spheroids. Both viruses were retrograde AAVs expressed under the human Synapsin promoter for expression in neurons and fused with an mCherry fluorophore. The DREADDs viruses either inserted the designer receptor hM4D(Gi), an inhibitory G-protein coupled receptor, or hM3D(Gq), a stimulatory G-protein coupled receptor. Clozapine-N-oxide (CNO, Tocris cat #4936) was suspended in dimethyl sulfoxide (DMSO) and used as the designer drug to activate the DREADDs viruses. CNO was tested at 1 and 10 μM, with data reported from the 1 μM concentration.
as §1
DAMGO was reconstituted in water at a 1 mM concentration and diluted in media to 20 µM such that spheroids would be treated with a final concentration of 10 μM after the half media exchange. Two aspects of OUD were modeled, chronic treatment along with opioid withdrawal. For spheroids subjected to chronic DAMGO treatment, 20 μM DAMGO in maintenance media was added via half media exchange beginning on day 10, with treatments occurring every other day for 10 days, giving a total of five treatments.
384 Pin Tool: A 384 well pin tool (Rexroth) was used to transfer compounds simultaneously to the spheroid plate. Prior to compound transfer, the pin tool went through four wash cycles where pins were rinsed with dimethyl sulfoxide (DMSO), followed by methanol, then deionized (DI) water, to ensure the pins were clean. Compound transfer via the 384 well pin tool occurred after the baseline recordings with the fluorescent imaging plate reader (FLIPR). Here, 60 nL of compound suspended in DMSO was transferred to 60 µL of media in each well, diluting the compounds by 1000-fold and giving a final DMSO concentration of 0.1%.

VTA-like spheroids [3] = assay: FLIPR calcium activity with Cal6 dye, control compounds / DAMGO (Example 3); conditions: VTA-like spheroids; recordings 1-, 30-, 60-min after treatment
Procedure: as §2, §1
DAMGO was reconstituted in water at a 1 mM concentration and diluted in media to 20 µM such that spheroids would be treated with a final concentration of 10 μM after the half media exchange. Two aspects of OUD were modeled, chronic treatment along with opioid withdrawal. […]
384 Pin Tool: A 384 well pin tool (Rexroth) was used to transfer compounds simultaneously to the spheroid plate. […] Compound transfer via the 384 well pin tool occurred after the baseline recordings with the fluorescent imaging plate reader (FLIPR). […]

PFC-like spheroids [4] = assay: FLIPR calcium activity profiling, compound addition (Examples 1-2); conditions: FLIPR recordings 1-, 30-, 70-min after compound (t1, t30, t70)
Procedure: (§3) To examine neuronal activity changes as a response to compound treatment, calcium activity was assessed using a Fluorescent Imaging Plate Reader (FLIPR) Penta (Molecular Devices). FLIPR Calcium 6 Assay kits were purchased from Molecular Devices (PN: R8190). On day of activity profiling, 96-well or 384-well ULA round bottom (black sides, clear bottom) plates containing spheroids were removed from incubator. Fresh FLIPR Calcium 6 dye was prepared by diluting each vial in 10 ml of freshly prepared, phenol-free complete spheroid maturation media and vortexed for 2 minutes. Half of the media was removed from each well (45 μl from 384-well plate wells, 100 ul from 96-well plate wells) and replaced with equal amounts freshly prepared FLIPR Calcium 6 dye, followed by a 2-hour incubation in the dark in a 37 C, 5% CO2 incubator. After 2-hours, plates were removed and kept at room temperature for 10 minutes, then imaged and calcium activity read using the Molecular Devices FLIPR Penta High-Throughput Cellular Screening System. The FLIPR incubator stage was pre-warmed to 37° C. approximately 30 minutes prior to imaging. Standard filter sets were used for Cal6 imaging (excitation 470-495 and emission 515-575 nm). FLIPR recordings were obtained with the camera in normal mode, and settings included: gain was set to 2.5, exposure time to 0.03 seconds, and excitation intensity to 50%. Fluorescent image reads were taken every 0.6 seconds for a total of 1000 reads over a total run time of 10 minutes. Four recordings total were captured: baseline activity, 1-min after compound treatment, 30- and 70-min after compound treatment.
(§4) After baseline activity, cell plates were removed from the FLIPR and transferred to a 384-well pin tool instrument. Prior to compound addition, the pin tool was subjected to 4 wash cycles exposing the pins to water, methanol, and DMSO each time. Compounds, including either “QC compounds” (compounds with known mechanism of action, listed in results) or the mu opioid receptor selective-agonist DAMGO, were transferred from a compound source plate to the 384-well spheroid plate. Immediately after compound transfer, the cell plate was placed back in the FLIPR for the recording that was 1-min after compound transfer to begin. After this 10-min recording, another recording was captured 30-min after compounds were transferred. After the 30-min recording, the plate was again removed from the FLIPR and transferred to the pin tool instrument. During this phase of compound transfer, naloxone was transferred to wells that received DAMGO during the first compound transfer. Following this second compound transfer, the cell plate was placed back in the FLIPR and a final recording was obtained 30-min later, and 70-min after the initial compound transfer.
(§5) The FLIPR software ScreenWorks PeakPro 2.0 was used for the initial analysis of calcium activity using automated peak detection settings. With these settings, average peak statistics over each 10-min recording for each well were exported from PeakPro to Microsoft Excel. ScreenWorks Peak Pro 2.0 software was used to extract 17 activity features describing different aspects of calcium activity profiles. These included peak amplitude (PkA), peak amplitude standard deviation (PkASD), peak count (PkCt), peak rate (measured as peaks per minute, PpM), peak rate SD, peak spacing (PkSp), peak spacing SD (PkSpSD), peak spacing regularity, area under the curve (AUC), AUC SD, peak rise slope, peak rise slope SD, peak rise time (PkRt), peak ride time SD (PkRtSD), peak decay slope, peak decay slope SD, peak decay time (PkDt), and peak decay time SD (PkDtSD). To assess variability of these peak parameters, percent coefficients of variance (CV) were calculated by dividing the standard deviation/mean and multiplying by 100 for each designer spheroid type, and those with % CV's […] 20% were removed from future analysis. […]

VTA-like spheroids [5] = assay: as above; conditions: FLIPR recordings 1-, 30-, 70-min after compound (t1, t30, t70)
Procedure: as §3, §4, §5

Structure (SMILES)	effect of chemogenetic activation on peak parameters ([1]; spheroids with Dopa or Gluta composition expressing hM3Dq)	effect of chemogenetic inhibition on peak parameters ([1]; spheroids with Dopa or Gluta composition expressing hM4Di)	reversal of APOE4-induced deficits in peak count and spacing (APOE4 PFC-like spheroids)	functional response (calcium activity peak parameters) to control compound (PFC-like spheroids [2])	functional response (calcium activity peak parameters) to control compound (VTA-like spheroids [3])	effect on calcium activity peak parameters compared to DMSO controls (PFC-like spheroids [4])	effect on calcium activity peak parameters compared to DMSO controls (VTA-like spheroids [5])
C[N+]1([O-])CCN(C2=Nc3cc(Cl)ccc3Nc3ccccc32)CC1 [CNO, Clozapine-N-oxide]	chemogenetic activation increased measures of peak frequency such as peak count and rate while reducing parameters such as peak spacing and peak width	the opposite was observed for these spheroids subjected to chemogenetic inhibition					
COc1cc2c(cc1OC)C(=O)C(CC1CCN(Cc3ccccc3)CC1)C2 (stereo not drawn) [Donepezil]			reverse deficits caused by APOE4 GABA neurons; also recorded: restore deficits in peak count				
COc1cccc(C=NCCN=Cc2cccc(OC)c2[O-])c1[O-].[Cl-].[Mn+3] [EUK-134]			reverse deficits caused by APOE4 GABA neurons; also recorded: restore deficits in peak count				
CC12CC3CC(C)(C1)CC(N)(C3)C2 [Memantine]			reverse deficits caused by APOE4 GABA neurons; also recorded: restore deficits in peak count	increases in peak count and rate and decreases in peak amplitude	increases in peak count and rate and decreases in peak amplitude		
NCc1cc(=O)[nH]o1 [Muscimol]				complete inhibition of activity that began immediately after treatment and persisted for at least 60-min	complete inhibition of activity that began immediately after treatment and persisted for at least 60-min	total inhibition of calcium activity that lasted throughout the entire recording period	total inhibition of calcium activity that lasted throughout the entire recording period
CCN1CCCC1CNC(=O)c1cc(S(N)(=O)=O)ccc1OC (stereo not drawn) [Sulpiride]				increased peak count and rate while decreasing peak spacing	no changes were observed in measures of peak frequency but increases in peak width and peak decay time were observed	significantly increased PkCt and PpM while decreasing PkSp 70-min after treatment	did not impact calcium activity, though there was a statistical trend toward significantly increasing PkCt 1-min after treatment
